“And” between values parts separate entries of the source, which are not always exact repeats. Equal values may be shown once. Where a name gives a salt, the structure may show the parent alone. Read-outs that look alike come from different tables or passages of the source. Square brackets hold non-standard residues; d marks the D form. Peptide text beside a SMILES is read from it. * marks the point of attachment. dNMePhg = CN[C@@H](C(=O)O)c1ccccc1; dHpg = N[C@@H](C(=O)O)c1ccc(O)cc1; dChg = N[C@@H](C(=O)O)C1CCCCC1; dPhg = N[C@@H](C(=O)O)c1ccccc1; Boc = CC(C)(C)OC(=O)*
Experiments:
thrombin = target: T1, thrombin (Bos taurus, UniProt P00735); test: Inhibition of thrombin amidase activity (chromogenic substrate N-benzoyl-D-phenylalanyl-L-valyl-L-arginyl-p-nitroanilide); format: biochemical
T1 construct: purchased
Experimental: The data in the table were obtained in an assay in which thrombin hydrolyzes the chromogenic substrate, N-benzoyl-D-phenylalanyl-L-valyl-L-arginyl-p-nitroanilide.
The assay was carried out in 50 µl buffer (0.03M Tris, 0.15M NaCl, pH 7.4) with 25 µl of thrombin solution (0.21 mg/ml of thrombostat powder in 0.06 M Tris, 0.3M NaCl, pH 7.4) and 150 µl of an aqueous solution of the chromogenic substrate at a concentration of 0.25 mg/ml. Solutions of test compound (25 µl) at various concentrations were added. […] Standard curves were constructed by plotting free thrombin concentration against hydrolysis rate. […] The amount of free inhibitor in each assay was calculated by subtracting the number of moles of bound thrombin from the number of moles of added inhibitor (test compound).
The Kass value is the hypothetical equilibrium constant for the reaction between thrombin and the test compouhnd (I). Thrombin + I ⇄ Thrombin - I [formula] Kass =([Thrombin I])/([ (Thrombin) x (I) ]) [formula]
Kass was calculated for a range of concentrations of test compounds and the mean value is reported in units of liter per mole.

plasma [1] = test: Plasma coagulation assay: prothrombin time; format: biochemical; conditions: thromboplastin (Dade)
Experimental: (§1) The numerical values in the table are the concentrations of the test compounds (ng/ml) required to prolong coagulation by 2-fold in the three tests. The thrombin time evaluation was carried out in plasma and separately determined in a buffer system at […].
(§2) The data presented in Table 2 were obtained using a CoaScreener instrument from Tecan, Inc. in the assay protocols listed below. Prothrombin Time: 50 µl plasma 50 µl saline 7 µl test solution 50 µl thromboplastin (Dade) Thrombin Time: 50 µl plasma 50 µl saline 7 µl test compound 50 µl bovine thrombin (2 NIH unit/ml) In the Thrombin Time determined in pH 7.4 buffer fibrinogen was used instead of plasma. APTT: 50 µl plasma 50 µl Actin (Dade) 7 µl test solution 50 µl CaCl2 (0.01M).

plasma [2] = test: Plasma coagulation assay: activated partial thromboplastin time (APTT); format: biochemical; conditions: Actin (Dade), CaCl2
Experimental: as §1, §2

bovine thrombin [3] = target: T2, bovine thrombin (Bos taurus, UniProt P00735); test: Plasma coagulation assay: thrombin time; format: biochemical; conditions: for EC (2-fold clotting time): read-out: Thrombin Time: concentration of test compounds required to prolong coagulation by 2-fold
T2 construct: 50 µl bovine thrombin (2 NIH unit/ml)
Experimental: as §1, §2

bovine thrombin [4] = target: T2, bovine thrombin; test: Thrombin time in buffer (fibrinogen instead of plasma); format: biochemical
Experimental: as §1, §2

[5] = system: Arterial Thrombosis in the Rat; test: FeCl3-induced arterial thrombosis in the carotid artery of the rat; format: in vivo; conditions: infusion from 15 min before to 60 min after FeCl3 application, NA = Not active at 4 mg/kg/h or at 7 mg/kg/h, the highest doses tested
Experimental: The antithrombotic activity of representative compounds of the invention was determined in in vivo tests carried out in the rat. The test employed induced arterial thrombosis in the carotid artery of the rat and measured the infusion dose of test compound required to maintain blood flow for fifty minutes past the time of occlusion. The test was performed as follows.
Arterial thrombosis was induced in the rat by injury of the carotid artery. Topical application of a ferric chloride solution was used to injure the vessel. […] Animals were laid on a water blanket in which the circulated water was maintained at 37° C. The carotid artery was approached through a midline cervical incision. Careful blunt dissection was used to expose and isolate the vessel from the carotid sheath. A silk suture was pulled underneath the artery to lift the vessel to provide clearance to insert a thermocouple underneath it. […] The discs were cut to equal size using sharpened stainless steel tubing (3 mm i.d.) chucked in a drill press. A saturated disc was placed on each carotid artery above the thermocouple. The time between FeCl3 application and the time at which temperature decreased abruptly was recorded as time to occlusion (TTO) of the vessel. The average time required for both vessels to occlude was used to represent TTO for each animal.
Test compounds were dissolved in isotonic saline. A syringe pump was used to infuse drug solutions starting 15 min before FeCl3 application and continuing for 60 min after FeCl3 application. Dose-response curves were plotted to determine the relationship between the log10 of the infused doses and the TTO of the injured arteries.
The association between vessel occlusion and the abrupt temperature decrease was established by simultaneously recording the temperature and blood flow on the same recorder. A pulsed Doppler flow probe was placed around the carotid artery proximal to the thermocouple. […] Results were reported as percent change from initial baseline values (6 min before occlusion). The time at which vessel temperature decreased rapidly was arbitrarily established as zero and pre- and post-occlusion temperature and flow values were referenced from that point.

[6] = Thrombin Amidase Kass, apparent equilibrium (association) constant, mean over a range of concentrations, pH 7.4, acetate salts unless indicated otherwise
[7] = apparent equilibrium (association) constant, mean over a range of concentrations, pH 7.4, acetate salts unless indicated otherwise, read-out: Thrombin Amidase Kass (converted)
[8] = plasma, bovine thrombin (2 NIH unit/ml)
[9] = buffer pH 7.5, fibrinogen instead of plasma, read-out: Buffer (pH 7.5) Thrombin Time: concentration of test compounds required to prolong coagulation by 2-fold

SMILES | Kd (thrombin; [6]) | EC (2-fold clotting time) (bovine thrombin [3]; [8]) | Prothrombin Time: concentration of test compounds required to prolong coagulation by 2-fold (plasma [1]) | APTT: concentration of test compounds required to prolong coagulation by 2-fold (plasma [2]) | also measured
N=C(N)NCCC[C@@H](C=O)NC(=O)[C@@H]1CCCN1C(=O)C1NCCc2ccccc21 (mixture of isomers) | 11.4 nM |  |  |  | 
CC(C)(C)OC(=O)NC(C(=O)N1CCC[C@H]1C(=O)N[C@H](C=O)CCCNC(=N)N)c1ccc(Cl)c(Cl)c1 (mixture of isomers) [N-Boc-DL-(3,4-dichloro)phenylglycyl] | 25 nM |  |  |  | 
CC[C@@H](C(=O)N1CCC[C@H]1C(=O)N[C@H](C=O)CCCNC(=N)N)c1ccccc1 [(R)-α-Ethylphenylacetyl] |  |  | 700 ng/mL | 2275 ng/mL | Kd (thrombin; [7]): 133 nM
CO[C@@H](C(=O)N1CCC[C@H]1C(=O)N[C@H](C=O)CCCNC(=N)N)c1ccccc1 [(R)-α-Methoxyphenylacetyl] |  |  | >909 ng/mL | >909 ng/mL | Kd (thrombin; [7]): 238 nM
C[C@@H](C(=O)N1CCC[C@H]1C(=O)N[C@H](C=O)CCCNC(=N)N)c1ccccc1 [(R)-α-Methylphenylacetyl] |  |  |  |  | Kd (thrombin; [7]): 90.9 nM
C[C@H](C(=O)N1CCC[C@H]1C(=O)N[C@H](C=O)CCCNC(=N)N)c1ccccc1 [(S)-α-Methylphenylacetyl] |  |  |  |  | Kd (thrombin; [7]): 5000 nM
COc1ccc([C@@H](NC(C)=O)C(=O)N2CCC[C@H]2C(=O)N[C@H](C=O)CCCNC(=N)N)cc1 [N-Acetyl-D-(4-methoxy)phenylglycyl] | 64.5 nM | 0.16 µg/mL | 900 ng/mL | 2600 ng/mL | 
CC(C)(C)OC(=O)N[C@@H](C(=O)N1CCC[C@H]1C(=O)N[C@H](C=O)CCCNC(=N)N)c1ccc2ccccc2c1 [N-Boc-D-2-naphthylglycyl, N-Boc-D-2-naphthylglycyl-Pro-Arg-H diacetate] |  |  | 1200 ng/mL | 1200 ng/mL | Buffer (pH 7.5) Thrombin Time: concentration of test compounds required to prolong coagulation by 2-fold (bovine thrombin [4]; buffer pH 7.5, fibrinogen instead of plasma): 142 ng/ml; Thrombin Time: concentration of test compounds required to prolong coagulation by 2-fold (bovine thrombin [3]; [8]): 230 ng/mL; Kd (thrombin): 45 nM
CC(C)(C)OC(=O)N[C@@H](C(=O)N1CCC[C@H]1C(=O)N[C@H](C=O)CCCNC(=N)N)c1cccs1 [N-Boc-D-2-thienyiglycyl] | 71.4 nM |  |  |  | 
CC(C)(C)OC(=O)N[C@@H](C(=O)N1CCC[C@H]1C(=O)N[C@H](C=O)CCCNC(=N)N)c1ccc(O)cc1 [N-Boc-D-(4-hydroxy)phenylglycyl, N-Boc-D-(4-hydroxyphenylglycyl)-Pro-Arg-H diacetate] (Boc-[dHpg]-Pro-Arg-aldehyde) |  | 0.182 µg/mL | 1636 ng/mL | 1091 ng/mL | 
COc1ccc([C@@H](NC(=O)OC(C)(C)C)C(=O)N2CCC[C@H]2C(=O)N[C@H](C=O)CCCNC(=N)N)cc1 [N-Boc-D-(4-methoxy)phenylglycyl] | 13.3 nM | 0.08 µg/mL |  | 640 ng/mL | 
CC(C)(C)OC(=O)N[C@@H](C(=O)N1CCC[C@H]1C(=O)N[C@H](C=O)CCCN=C(N)N)c1ccccc1 [N-Boc-D-phenylglycyl (sulfate salt), N-Boc-D-Phenylglycyl-L-Prolyl-L-Arginine aldehyde (Boc-D-Phg-Pro-Arg-H) hemisulfate] (Boc-[dPhg]-Pro-Arg-aldehyde) | 9.35 nM |  |  |  | 
CC(C)(C)OC(=O)N[C@@H](C(=O)N1CCC[C@H]1C(=O)N[C@H](C=O)CCCNC(=N)N)c1ccccc1 [N-Boc-D-phenylglycyl, N-(t-Butyloxycarbonyl)-D-phenylglycyl-L-Prolyl-L-Arginine aldehyde (Boc-D-Phg-Pro-Arg-H) diacetate salt] (Boc-[dPhg]-Pro-Arg-aldehyde) |  |  | 667 ng/mL | 1169 ng/mL | EC (2-fold clotting time) (bovine thrombin [4]; pH 7.5, read-out: Buffer (pH 7.5) Thrombin Time: concentration of test compounds required to prolong coagulation by 2-fold): 0.118 µg/mL; EC (2-fold clotting time) (bovine thrombin [3]): 0.11 µg/mL; ED50 (infusion dose required to maintain blood flow for 50 min) [5]: 2.9 mg/kg/h

Now from value to molecule, other results behind:

Kd (thrombin; [6]) | EC (2-fold clotting time) (bovine thrombin [3]; [8]) | SMILES | Prothrombin Time: concentration of test compounds required to prolong coagulation by 2-fold (plasma [1]) | APTT: concentration of test compounds required to prolong coagulation by 2-fold (plasma [2]) | also measured
263 nM |  | CC(C)(C)OC(=O)N1CCc2ccccc2C1C(=O)N1CCC[C@H]1C(=O)N[C@H](C=O)CCCNC(=N)N (mixture of isomers) [Boc-1,2,3,4-tetrahydroisoquinolin-1-ylcarbonyl-Pro-Arg-H] |  |  | 
 | 0.091 µg/mL | N=C(N)NCCC[C@@H](C=O)NC(=O)[C@@H]1CCCN1C(=O)[C@H](N)c1ccccc1 [D-Phenylglycyl, D-Phg-L-Pro-L-Arg-H] (H-[dPhg]-Pro-Arg-aldehyde) | 91 ng/mL | 1139 ng/mL | 
13.3 nM |  | NC(N)=NCCC[C@@H](C=O)NC(=O)[C@@H]1CCCN1C(=O)[C@H](N)c1ccccc1 [D-Phenylglycyl, D-Phg-L-Pro-L-Arg-H] (H-[dPhg]-Pro-Arg-aldehyde) |  |  | 
8.7 nM |  | CC(C)(C)OC(=O)N[C@@H](C(=O)N1CCC[C@H]1C(=O)N[C@H](C=O)CCCN=C(N)N)c1ccc(O)cc1 [N-Boc-D-(4-hydroxy)phenylglycyl, N-Boc-D-(4-hydroxyphenylglycyl)-Pro-Arg-H diacetate] (Boc-[dHpg]-Pro-Arg-aldehyde) |  |  | 
164 nM | 0.46 µg/mL | COc1ccc2cc([C@@H](NC(=O)OC(C)(C)C)C(=O)N3CCC[C@H]3C(=O)N[C@H](C=O)CCCNC(=N)N)ccc2c1 [N-Boc-D-(6-methoxy)-2-naphthylglycyl] | 35489 ng/mL | 2239 ng/mL | EC (2-fold clotting time) (bovine thrombin [4]; [9]): 0.466 µg/mL
8.33 nM |  | CC(C)(C)OC(=O)N[C@@H](C(=O)N1CCC[C@H]1C(=O)N[C@H](C=O)CCCN=C(N)N)C1CCCCC1 [N-Boc-D-cyclohexylglycyl] (Boc-[dChg]-Pro-Arg-aldehyde) |  |  | 
 | 0.079 µg/mL | CC(C)(C)OC(=O)N[C@@H](C(=O)N1CCC[C@H]1C(=O)N[C@H](C=O)CCCNC(=N)N)C1CCCCC1 [N-Boc-D-cyclohexylglycyl] (Boc-[dChg]-Pro-Arg-aldehyde) | 522 ng/mL | 748 ng/mL | EC (2-fold clotting time) (bovine thrombin [4]; [9]): 0.06 µg/mL; ED50 (infusion dose required to maintain blood flow for 50 min) [5]: 11.3 mg/kg/h
11.4 nM and 13.7 nM |  | CC(C)(C)OC(=O)N[C@@H](C(=O)N1CCC[C@H]1C(=O)N[C@H](C=O)CCCN=C(N)N)c1ccccc1 [N-Boc-D-phenylglycyl, N-(t-Butyloxycarbonyl)-D-phenylglycyl-L-Prolyl-L-Arginine aldehyde (Boc-D-Phg-Pro-Arg-H) diacetate salt] (Boc-[dPhg]-Pro-Arg-aldehyde) |  |  | 
192 nM | 0.3 µg/mL | CN(C(=O)OC(C)(C)C)[C@@H](C(=O)N1CCC[C@H]1C(=O)N[C@H](C=O)CCCNC(=N)N)c1ccccc1 [N-Boc-N-methyl-D-phenylglcyl] (Boc-[dNMePhg]-Pro-Arg-aldehyde) | 300 ng/mL | 4545 ng/mL | 
10.9 nM | 0.092 µg/mL | CN[C@@H](C(=O)N1CCC[C@H]1C(=O)N[C@H](C=O)CCCNC(=N)N)c1ccccc1 [N-Methyl-D-phenylglycyl, N-methyl-D-phenylglycyl-L-prolyl-L-arginine aldehyde] (H-[dNMePhg]-Pro-Arg-aldehyde) | 899 ng/mL | >909 ng/mL | EC (2-fold clotting time) (bovine thrombin [4]; [9]): 0.067 µg/mL

Source: patent EP0837071A1, “Tripeptide antithrombotic agents” (ELI LILLY AND COMPANY, priority 1990, dated 1992)
